Data taken from patent US20140243322A1, “BIVALENT BROMODOMAIN LIGANDS, AND METHODS OF USING SAME” (Coferon, Inc., priority 2011, published 2014).

How the values were obtained:
Myc mRNA = assay: Inhibition of Myc expression (Myc mRNA) in MV4-11 cells; format: cell-based; conditions: Homo sapiens, 4 hours of treatment, read-out: EC50 range, Myc mRNA normalized to GAPDH mRNA
Excerpt: Inhibition of Myc Expression.

[1] = target: N-terminal His 6-tagged BRD2 tandem protein; assay: Surface Plasmon Resonance (SPR) off-rate assay; format: binding; conditions: immobilized BRD2 tandem protein; saturating concentrations injected 5 minutes, buffer 20 minutes
Description: Surface Plasmon Resonance (SPR) Assay.
Off rates were determined using surface plasmon resonance measurements on a Bio-Rad ProteOn XPR 36 instrument. N-terminal His 6-tagged BRD2 tandem protein was immobilized by capturing on a ProteOn HTG sensor chip and then cross coupled to the surface using standard amine reactive chemistry. Selected bivalent inhibitors were injected on to the chip surface at saturating concentrations for 5 minutes followed by buffer for 20 minutes. The resulting sensorgrams were analyzed using the ProteOn XPR software to determine off-rates. Off rates for selected bivalent inhibitors were >100× slower when binding to the BRD2 tandem protein compared to the monovalent pharmacophores or compared to the bivalents binding to monobromodomain containing protein constructs.

MV4-11 cells = assay: Inhibition of MV4-11 cell proliferation (Cell-Titer Glo); format: cell-based; conditions: Homo sapiens, 72 hours of growth, read-out: GI50 range
Description: Inhibition of MV4-11 Cell Proliferation.
MV4-11 cells (5000 cells in 50 μl volumes) in growth medium containing 10% FBS and 1% Pen/Strep were plated and grown overnight in 96 well plates and treated the next day with 3-fold dilutions of test compounds or with DMSO vehicle. After 72 hours of growth, 30 ul of Cell-Titer Glo reagent (Promega) was added to the wells and the plates incubated for 30 minutes. Luminescence was measured on a Spectramax M5 plate reader and GI50 values were calculated for each test compound.

Structure (SMILES) | EC50 (Myc mRNA) | kd (off rate) [1] | GI50 (MV4-11 cells)
CCNC(=O)C[C@@H]1N=C(c2ccc(Cl)cc2)c2cc(OCCCNC(=O)C[C@@H]3N=C(c4ccc(Cl)cc4)c4cc(OC)ccc4-n4c(C)nnc43)ccc2-n2c(C)nnc21 [BRD-B-02, N-(3-(((4S)-6-(4-chlorophenyl)-4-(2-(ethylamino)-2-oxoethyl)-1-methyl-4H-benzo[f][1,2,4]triazolo[4,3-a][1,4]diazepin-8-yl)oxy)propyl)-2-((4S)-6-(4-chlorophenyl)-8-methoxy-1-methyl-4H-benzo[f][1,2,4]triazolo[4,3-a][1,4]diazepin-4-yl)acetamide] | 100 to 30000 nM | 0.00011 s⁻¹ | 0.1 to 30 nM
CCNC(=O)C[C@@H]1N=C(c2ccc(Cl)cc2)c2cc(OCCOCCNC(=O)C[C@@H]3N=C(c4ccc(Cl)cc4)c4cc(OC)ccc4-n4c(C)nnc43)ccc2-n2c(C)nnc21 [BRD-B-03, N-(2-(2-(((4S)-6-(4-chlorophenyl)-4-(2-(ethylamino)-2-oxoethyl)-1-methyl-4H-benzo[f][1,2,4]triazolo[4,3-a][1,4]diazepin-8-yl)oxy)ethoxy)ethyl)-2-((4S)-6-(4-chlorophenyl)-8-methoxy-1-methyl-4H-benzo[f][1,2,4]triazolo[4,3-a][1,4]diazepin-4-yl)acetamide] | – | 0.00011 s⁻¹ | 30 to 100 nM
CCNC(=O)C[C@@H]1N=C(c2ccc(Cl)cc2)c2cc(OCCOCCOCCOCCOCCOCCOCCNC(=O)C[C@@H]3N=C(c4ccc(Cl)cc4)c4cc(OC)ccc4-n4c(C)nnc43)ccc2-n2c(C)nnc21 [BRD-B-14, N-(20-(((4S)-6-(4-chlorophenyl)-4-(2-(ethylamino)-2-oxoethyl)-1-methyl-4H-benzo[f][1,2,4]triazolo[4,3-a][1,4]diazepin-8-yl)oxy)-3,6,9,12,15,18-hexaoxaicosyl)-2-((4S)-6-(4-chlorophenyl)-8-methoxy-1-methyl-4H-benzo[f][1,2,4]triazolo[4,3-a][1,4]diazepin-4-yl)acetamide] | 0.1 to 30 nM | 7.5e-05 s⁻¹ | 0.1 to 30 nM
CCNC(=O)C[C@@H]1N=C(c2ccc(Cl)cc2)c2cc(OCCOCCOCCOCCOCCOCCOCCOCCNC(=O)C[C@@H]3N=C(c4ccc(Cl)cc4)c4cc(OC)ccc4-n4c(C)nnc43)ccc2-n2c(C)nnc21 [BRD-B-15, N-(23-(((4S)-6-(4-chlorophenyl)-4-(2-(ethylamino)-2-oxoethyl)-1-methyl-4H-benzo[f][1,2,4]triazolo[4,3-a][1,4]diazepin-8-yl)oxy)-3,6,9,12,15,18,21-heptaoxatricosyl)-2-((4S)-6-(4-chlorophenyl)-8-methoxy-1-methyl-4H-benzo[f][1,2,4]triazolo[4,3-a][1,4]diazepin-4-yl)acetamide] | 100 to 30000 nM | 8.3e-05 s⁻¹ | 0.1 to 30 nM
CCNC(=O)C[C@@H]1N=C(c2ccc(Cl)cc2)c2cc(OCCOCCOCCOCCOCCOCCOCCOCCOCCNC(=O)C[C@@H]3N=C(c4ccc(Cl)cc4)c4cc(OC)ccc4-n4c(C)nnc43)ccc2-n2c(C)nnc21 [BRD-B-20, N-(26-(((4S)-6-(4-chlorophenyl)-4-(2-(ethylamino)-2-oxoethyl)-1-methyl-4H-benzo[f][1,2,4]triazolo[4,3-a][1,4]diazepin-8-yl)oxy)-3,6,9,12,15,18,21,24-octaoxahexacosyl)-2-((4S)-6-(4-chlorophenyl)-8-methoxy-1-methyl-4H-benzo[f][1,2,4]triazolo[4,3-a][1,4]diazepin-4-yl)acetamide] | 0.1 to 30 nM | – | 0.1 to 30 nM
COc1ccc2c(c1)C(c1ccc(Cl)cc1)=N[C@@H](CC(=O)NCCOCCOCCOCCOCCOCCOCCOCCOCCNC(=O)C[C@@H]1N=C(c3ccc(Cl)cc3)c3cc(OC)ccc3-n3c(C)nnc31)c1nnc(C)n1-2 [BRD-B-22, (S)—N,N′-(3,6,9,12,15,18,21,24-octaoxahexacosane-1,26-diyl)bis(2-((4S)-6-(4-chlorophenyl)-8-methoxy-1-methyl-4H-benzo[1,2,4]triazolo[4,3-a][1,4]diazepin-4-yl)acetamide)] | 30 to 100 nM | – | 0.1 to 30 nM
COc1ccc2c(c1)C(c1ccc(Cl)cc1)=N[C@@H](CC(=O)NCCOCCOCCOCCOCCOCCOCCOCCOCCOCCNC(=O)C[C@@H]1N=C(c3ccc(Cl)cc3)c3cc(OC)ccc3-n3c(C)nnc31)c1nnc(C)n1-2 [BRD-B-23, (S)—N,N′-(3,6,9,12,15,18,21,24,27-nonaoxanonacosane-1,29-diyl)bis(2-((4S)-6-(4-chlorophenyl)-8-methoxy-1-methyl-4H-benzo[f][1,2,4]triazolo[4,3-a][1,4]diazepin-4-yl)acetamide)] | 30 to 100 nM | – | 0.1 to 30 nM
